Source: PubChem BioAssay (NCI)
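All cell lines were grown in 96-well plates and treated with compound for 48 hours. GI50 is the concentration that inhibits growth by half. Definition used: TGI = concentration required for complete inhibition of growth.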

Columns and labels:
Test in all cases: inhibition of tumour cell growth, NCI panel, 48 h
MOLT-4 leukemia = system: MOLT-4 leukemia
MALME-3M melanoma = system: MALME-3M melanoma
SNB-75 CNS = system: SNB-75 CNS
A498 renal = system: A498 renal
SK-MEL-5 melanoma = system: SK-MEL-5 melanoma
SK-MEL-2 melanoma = system: SK-MEL-2 melanoma
CAKI-1 renal = system: CAKI-1 renal
SK-MEL-28 melanoma = system: SK-MEL-28 melanoma
SF-268 CNS = system: SF-268 CNS
U251 CNS = system: U251 CNS

SMILES: COc1ccc2c(C3(c4cn(C)c5cc(OC)ccc45)C(=O)Nc4ccc(Cl)cc43)cn(C)c2c1
- GI50 (MOLT-4 leukemia): 2.58 µM
- TGI (MOLT-4 leukemia): 8.01 µM
- GI50 (MALME-3M melanoma): 3.62 µM
- TGI (MALME-3M melanoma): 57.6 µM
- GI50 (SNB-75 CNS): 2.1 µM
- TGI (SNB-75 CNS): > 100 µM
- GI50 (A498 renal): 4.5 µM
- TGI (A498 renal): 88.7 µM
- GI50 (SK-MEL-5 melanoma): 4.26 µM
- TGI (SK-MEL-5 melanoma): 20.8 µM
- GI50 (SK-MEL-2 melanoma): 2.97 µM
- TGI (SK-MEL-2 melanoma): 6.55 µM
- GI50 (CAKI-1 renal): 2.04 µM
- TGI (CAKI-1 renal): > 100 µM
- GI50 (SK-MEL-28 melanoma): 4.71 µM
- TGI (SK-MEL-28 melanoma): > 100 µM
- GI50 (SF-268 CNS): 3.67 µM
- TGI (SF-268 CNS): > 100 µM
- GI50 (U251 CNS): 3.81 µM
- TGI (U251 CNS): > 100 µM

SMILES: COc1ccccc1C1=C(Nc2ccccc2)C(=O)NC1=O
- GI50 (MOLT-4 leukemia): > 25 µM
- TGI (MOLT-4 leukemia): > 25 µM
- GI50 (MALME-3M melanoma): > 25 µM
- TGI (MALME-3M melanoma): > 25 µM
- GI50 (SNB-75 CNS): > 18.1 µM
- TGI (SNB-75 CNS): > 25 µM
- GI50 (A498 renal): > 25 µM
- TGI (A498 renal): > 25 µM
- GI50 (SK-MEL-5 melanoma): > 25 µM
- TGI (SK-MEL-5 melanoma): > 25 µM
- GI50 (SK-MEL-2 melanoma): > 25 µM
- TGI (SK-MEL-2 melanoma): > 25 µM
- GI50 (CAKI-1 renal): > 25 µM
- TGI (CAKI-1 renal): > 25 µM
- GI50 (SK-MEL-28 melanoma): > 25 µM
- TGI (SK-MEL-28 melanoma): > 25 µM
- GI50 (SF-268 CNS): > 25 µM
- TGI (SF-268 CNS): > 25 µM
- GI50 (U251 CNS): > 25 µM
- TGI (U251 CNS): > 25 µM

SMILES: Cc1nnc2c3nnc(C)n3c3ccccc3n12
- TGI (MOLT-4 leukemia): > 100 µM
- TGI (MALME-3M melanoma): > 100 µM
- TGI (SNB-75 CNS): > 100 µM
- TGI (A498 renal): > 100 µM
- TGI (SK-MEL-5 melanoma): > 100 µM
- TGI (SK-MEL-2 melanoma): > 100 µM
- TGI (CAKI-1 renal): > 100 µM
- TGI (SK-MEL-28 melanoma): > 100 µM
- TGI (SF-268 CNS): > 100 µM
- TGI (U251 CNS): > 100 µM

SMILES: CCCCCCNC(=O)Oc1ccc(/C(=C(/C)Cc2ccc(OC)cc2)c2ccc(OCCCN(C)C)cc2)cc1
- GI50 (MOLT-4 leukemia): 12.3 µM
- TGI (MOLT-4 leukemia): 28.2 µM
- GI50 (MALME-3M melanoma): 15.3 µM
- TGI (MALME-3M melanoma): 30.5 µM
- GI50 (SNB-75 CNS): 12.6 µM
- TGI (SNB-75 CNS): 25.6 µM
- GI50 (A498 renal): 14.1 µM
- TGI (A498 renal): 27.3 µM
- GI50 (SK-MEL-5 melanoma): 16.4 µM
- TGI (SK-MEL-5 melanoma): 30.1 µM
- GI50 (SK-MEL-2 melanoma): 18.5 µM
- TGI (SK-MEL-2 melanoma): 34 µM
- GI50 (CAKI-1 renal): 14.5 µM
- TGI (CAKI-1 renal): 27.8 µM
- GI50 (SK-MEL-28 melanoma): 14.5 µM
- TGI (SK-MEL-28 melanoma): 28.1 µM
- GI50 (SF-268 CNS): 15 µM
- TGI (SF-268 CNS): 30.5 µM
- GI50 (U251 CNS): 13 µM
- TGI (U251 CNS): 26.5 µM

SMILES: CN=C(NC(=S)N(C)C)N(C)C
- TGI (MOLT-4 leukemia): > 100 µM
- TGI (MALME-3M melanoma): > 100 µM
- TGI (SNB-75 CNS): > 100 µM
- TGI (A498 renal): > 100 µM
- TGI (SK-MEL-5 melanoma): > 100 µM
- TGI (SK-MEL-2 melanoma): > 100 µM
- TGI (CAKI-1 renal): > 100 µM
- TGI (SK-MEL-28 melanoma): > 100 µM
- TGI (SF-268 CNS): > 100 µM
- TGI (U251 CNS): > 100 µM

SMILES: FC(F)(F)c1ccc(-c2cnc(-n3cc(COCCN4CCCCC4)nn3)nc2NC2CCCCCC2)cc1
- GI50 (MOLT-4 leukemia): 3.73 µM
- TGI (MOLT-4 leukemia): 9.26 µM
- GI50 (MALME-3M melanoma): 4.24 µM
- TGI (MALME-3M melanoma): 8.47 µM
- GI50 (SNB-75 CNS): 2.72 µM
- TGI (SNB-75 CNS): 6.4 µM
- GI50 (A498 renal): 3.56 µM
- TGI (A498 renal): 7.04 µM
- GI50 (SK-MEL-5 melanoma): 3.46 µM
- TGI (SK-MEL-5 melanoma): 6.74 µM
- GI50 (SK-MEL-2 melanoma): 4.42 µM
- TGI (SK-MEL-2 melanoma): 8.22 µM
- GI50 (CAKI-1 renal): 3.51 µM
- TGI (CAKI-1 renal): 7.33 µM
- GI50 (SK-MEL-28 melanoma): 3.6 µM
- TGI (SK-MEL-28 melanoma): 6.99 µM
- GI50 (SF-268 CNS): 3.98 µM
- TGI (SF-268 CNS): 7.87 µM
- GI50 (U251 CNS): 3.5 µM
- TGI (U251 CNS): 6.87 µM

SMILES: COC1=C(C)C(=O)c2c(c(CCCl)c3n2CCC3O)C1=O (stereo not given)
- GI50 (MOLT-4 leukemia): 7.37 µM
- TGI (MOLT-4 leukemia): 99.4 µM
- GI50 (MALME-3M melanoma): 0.23 µM
- TGI (MALME-3M melanoma): 0.584 µM
- GI50 (SNB-75 CNS): 0.191 µM
- TGI (SNB-75 CNS): 0.628 µM
- GI50 (A498 renal): 0.145 µM
- TGI (A498 renal): 0.313 µM
- GI50 (SK-MEL-5 melanoma): 0.148 µM
- TGI (SK-MEL-5 melanoma): 0.291 µM
- GI50 (SK-MEL-2 melanoma): 0.376 µM
- TGI (SK-MEL-2 melanoma): 1.57 µM
- GI50 (CAKI-1 renal): 1.22 µM
- TGI (CAKI-1 renal): 3.95 µM
- GI50 (SK-MEL-28 melanoma): 0.811 µM
- TGI (SK-MEL-28 melanoma): 3.85 µM
- GI50 (SF-268 CNS): 0.533 µM
- TGI (SF-268 CNS): 20 µM
- GI50 (U251 CNS): 0.36 µM
- TGI (U251 CNS): 11.9 µM
